Source: patent US9351983B2, “Use of glycerophosphoinositols for the treatment of septic shock” (CONSIGLIO NAZIONALE DELLE RICERCHE, priority 2012, dated 2016)

Columns and labels:
TxB-2 = assay: ELISA of TxB-2 in medium of LPS-stimulated monocytes; assay type: cell-based, human; conditions: 300 μM
Method: FIG. 5—The inhibitory effects of GroPIns are also evident at the protein expression level. Purified monocytes (4×10^3 cells/sample) were pre-incubated for 20 min at 37° C. in the absence and presence of 300 μM GroPIns, and then for a further 5 h and 24 h without or with 0.1 μg/ml LPS from E. coli. At the end of this incubation, the levels of TNFα, IL-1β and TxB-2 in the medium were assessed by ELISA. In monocytes alone, the protein concentrations were under the assay detection limits at both the times. The data are representative of three independent experiments performed with cells from different donors. Exposure of monocytes to LPS induced a time-dependent increase in the […] levels of all of the cytokines analysed.
Cellular levels of TNFα, IL-1β and TxB-2 were quantified by enzyme-linked immunosorbent assay (ELISA). Conditioned medium from monocytes was sedimented by centrifugation at 300×g at room temperature for 10 min to eliminate cellular debris. Then, the supernatant was recovered and the concentrations of TNFα, IL-1β and TxB-2 were assessed by ELISA, as specified by the manufacturers (Amersham Pharmacia Biotech (NJ, USA).

Interleukin 1β (IL-1β) = assay: In vitro model of human inflammation: ELISA of IL-1β in supernatants; assay type: cell-based; conditions: 300 μM; full inflammation (4 h and 14 h); one donor
Method: (§1) FIG. 16—Glycerophosphoinositol inhibits the release of cytokines. Human monocytes were purified from one donor and treated according to the in vitro model of human inflammation, previously described, in absence (blue line) or in presence (red line) of 300 μM glycerophosphoinositol. In detail, glycerophosphoinositol was added to cultured cells 20 minutes before LPS, IL-10 and TGF-β, that is, again after each wash. The growth medium was collected at time 4 h, 14 h, 24 h, 48 h; growth medium from freshly isolated monocytes was considered as control at time 0 h. The levels of cytokines Interleukin 1β (IL-1β), Tumor necrosis factor α (TNFα) and Interleukin-6 (IL-6) in the supernatants were measured by enzyme-linked immunosorbent assay (ELISA kit, R&D System) according to manufacturer's protocol. An increased release of these cytokines was observed during the full inflammation (time 4 h and 14 h) as expected. […]
(§2) Extracellular levels of IL-1β, TNFα and IL-6 were measured by enzyme-linked immunosorbent assay (ELISA) from R&D System. […] Then the recovered supernatants were loaded onto plates according to manufacturer's protocol and the concentration of the protein was assessed spectrophotometrically.

[1] = test system: cyclooxygenase 2 (COX-2) gene expression; assay: In vitro model of human inflammation: real-time PCR of COX-2; assay type: cell-based; conditions: 300 μM; 4 h, 14 h, 24 h, 48 h; effect mainly at 4 h and 14 h; one donor, preliminary
Method: (§3) FIG. 15—Glycerophosphoinositol modulates the kinetic transcriptional profile of genes involved in the regulation of inflammatory response. Human monocytes were purified from one donor and treated according to the in vitro model of human inflammation, previously described, in absence (blue line) or in presence (red line) of 300 μM glycerophosphoinositol. In detail glycerophosphoinositol was added to cells in culture 20 minutes before LPS, IL-10 and TGF-β, that is, again after each wash. Samples were collected at time 4 h, 14 h, 24 h, 48 h; freshly isolated monocytes have been considered as control at time 0 h. Total RNA was extracted from cells by RNeasy kit (Qiagen) and reverse-transcribed to cDNA (QuantiTect Reverse Transcription kit, Qiagen). […] Each sample was measured in triplicate and data were analyzed with Pfaffl methods for comparing relative expression data. The measurement of mRNA expression was expressed as fold-increase over control (time 0 h). […]
(§4) Total RNA was extracted with RNeasy kit (Qiagen) according to the manufacturer's instructions. Both integrity and quality of total RNA were checked by agarose gel electrophoresis and the concentration of each RNA sample was assessed spectrophotometrically. Total RNAs were reverse-transcribed to cDNA (QuantiTect Reverse Transcription kit, Qiagen) with oligo-dT and random primers, according to manufacturer's protocol. […]

[2] = test system: Tumor necrosis factor α (TNFα); assay: In vitro model of human inflammation: ELISA of TNFα in supernatants; assay type: cell-based; conditions: 300 μM; full inflammation (4 h and 14 h); one donor
Method: as §1, §2

[3] = test system: Interleukin-1 receptor α (IL-1Rα) gene expression; assay: In vitro model of human inflammation: real-time PCR of IL-1Rα; assay type: cell-based; conditions: 300 μM; 4 h, 14 h, 24 h, 48 h; one donor, preliminary
Method: as §3, §4

[4] = test system: interleukin-1 receptor II (IL-1RII) gene expression; assay: In vitro model of human inflammation: real-time PCR of IL-1RII; assay type: cell-based; conditions: 300 μM; 4 h, 14 h, 24 h, 48 h; one donor, preliminary
Method: as §3, §4

O=P(O)(OCC(O)CO)OC1C(O)C(O)C(O)C(O)C1O (stereo not shown) [GroPIns, glycerophosphoinositol]
level of TxB-2 in the medium (TxB-2; 0.1 μg/ml LPS for 5 h): very small effects | level of TxB-2 in the medium (TxB-2; 0.1 μg/ml LPS for 24 h): significantly reduced | amount of IL-1β in the supernatants (Interleukin 1β (IL-1β)): significantly reduced the amount of these cytokines in the supernatants | COX-2 mRNA expression [1]: hampered the expression | amount of TNFα in the supernatants [2]: significantly reduced the amount of these cytokines in the supernatants | IL-1Rα mRNA expression [3]: favoured the expression | IL-1RII mRNA expression [4]: favoured the expression
